For this assay, the target named is GluA1o-γ8 (GRIA1o-CACNG8 fusion construct) (Homo sapiens (Human), UniProt P42261+Q8WXS5). The assay can be described thus: Calcium flux assay (FLIPR), inhibition of TARP γ8 dependent AMPA receptor activity. The conditions noted are these: GluA1o-γ8 (GRIA1o-CACNG8 fusion) in HEK293 cells, calcium flux after 15 μM glutamate. The format is cell-based. The source says:
This assay was used to test compounds for their ability to inhibit TARP γ8 dependent AMPA receptor activity. The AMPA receptor is a non-selective cation channel activated by glutamate. Ionotropic glutamate receptors normally desensitize too rapidly to allow detectable calcium influx in a FLIPR assay (Strange et al. (2006). “Functional characterisation of homomeric ionotropic glutamate receptors GluR1-GluR6 in a fluorescence-based high throughput screening assay.” Comb Chem High Throughput Screen 9(2): 147-158). But, this desensitization is incomplete, and a substantial steady-state current remains in the sustained presence of glutamate (Cho et al. (2007). “Two families of TARP isoforms that have distinct effects on the kinetic properties of AMPA receptors and synaptic currents.” Neuron 55(6): 890-904).
An in vitro assay was used to determine the potency of test compounds as inhibitors of the glutamate response of the channel formed by GluA1o-γ8. To ensure a 1:1 stoichiometry of GluA1o and γ8 subunits in the expressed channel, a fusion of the cDNAs for GRIA1o and CACNG8 was used. Following Shi et al (2009) “The stoichiometry of AMPA receptors and TARPs varies by neuronal cell type.” Neuron 62(5): 633-640), the C-terminus of the cDNA for GRIA1o was fused to the N-terminus of the cDNA for γ8. The linker sequence was QQQQQQQQQQEFAT. Channels expressed with this construct appear to have similar properties to channels formed by co-expression of GRIA1o with an excess of CACNG8 (Shi et al. 2009). A clonal cell line in HEK293 cells stably expressing this construct, with a geneticin selection marker, was generated for use in this assay.
Cell expressing the GRIA1o-CACNG8 fusion construct were grown in a monolayer in 96- or 384-well microtiter plates. They were washed with assay buffer (135 mM NaCl, 4 mM KCl, 3 mM CaCl2, 1 mM MgCl2, 5 mM glucose, 10 mM HEPES, pH 7.4, 300 mOs) using a Biotek EL405 plate washer. The cells were then loaded with a calcium-sensitive dye (Calcium-5 or Calcium-6, Molecular Devices) and the test compounds at a range of concentrations. Calcium flux following the addition of 15 μM glutamate was monitored using a Molecular Devices FLIPR Tetra. The fluorescence in each well was normalized to the fluorescence of negative and positive control wells. The negative control wells had no added compounds, and the positive control wells had been incubated with 10 μM CP465022 (a non-subtype-selective AMPA receptor antagonist) (Lazzaro et al. (2002). “Functional characterization of CP-465,022, a selective, noncompetitive AMPA receptor antagonist.” Neuropharmacology 42(2): 143-153). The responses to glutamate as functions of the test compound concentrations were fitted to a four-parameter logistic function. The fitted parameter corresponding to the midpoint was taken to be the potency of inhibition of the compound. The data in Table 4 below illustrates the observed potentcy for the compounds described herein. pIC50 refers to the negative log of the IC50 in molar.
Background: A change in cytosolic calcium serves as a functional read-out for many receptors and channels.
Sequence of GluA1o-γ8 (GRIA1o-CACNG8 fusion construct) (P42261 other isoform, or with tags, fused parts or gaps): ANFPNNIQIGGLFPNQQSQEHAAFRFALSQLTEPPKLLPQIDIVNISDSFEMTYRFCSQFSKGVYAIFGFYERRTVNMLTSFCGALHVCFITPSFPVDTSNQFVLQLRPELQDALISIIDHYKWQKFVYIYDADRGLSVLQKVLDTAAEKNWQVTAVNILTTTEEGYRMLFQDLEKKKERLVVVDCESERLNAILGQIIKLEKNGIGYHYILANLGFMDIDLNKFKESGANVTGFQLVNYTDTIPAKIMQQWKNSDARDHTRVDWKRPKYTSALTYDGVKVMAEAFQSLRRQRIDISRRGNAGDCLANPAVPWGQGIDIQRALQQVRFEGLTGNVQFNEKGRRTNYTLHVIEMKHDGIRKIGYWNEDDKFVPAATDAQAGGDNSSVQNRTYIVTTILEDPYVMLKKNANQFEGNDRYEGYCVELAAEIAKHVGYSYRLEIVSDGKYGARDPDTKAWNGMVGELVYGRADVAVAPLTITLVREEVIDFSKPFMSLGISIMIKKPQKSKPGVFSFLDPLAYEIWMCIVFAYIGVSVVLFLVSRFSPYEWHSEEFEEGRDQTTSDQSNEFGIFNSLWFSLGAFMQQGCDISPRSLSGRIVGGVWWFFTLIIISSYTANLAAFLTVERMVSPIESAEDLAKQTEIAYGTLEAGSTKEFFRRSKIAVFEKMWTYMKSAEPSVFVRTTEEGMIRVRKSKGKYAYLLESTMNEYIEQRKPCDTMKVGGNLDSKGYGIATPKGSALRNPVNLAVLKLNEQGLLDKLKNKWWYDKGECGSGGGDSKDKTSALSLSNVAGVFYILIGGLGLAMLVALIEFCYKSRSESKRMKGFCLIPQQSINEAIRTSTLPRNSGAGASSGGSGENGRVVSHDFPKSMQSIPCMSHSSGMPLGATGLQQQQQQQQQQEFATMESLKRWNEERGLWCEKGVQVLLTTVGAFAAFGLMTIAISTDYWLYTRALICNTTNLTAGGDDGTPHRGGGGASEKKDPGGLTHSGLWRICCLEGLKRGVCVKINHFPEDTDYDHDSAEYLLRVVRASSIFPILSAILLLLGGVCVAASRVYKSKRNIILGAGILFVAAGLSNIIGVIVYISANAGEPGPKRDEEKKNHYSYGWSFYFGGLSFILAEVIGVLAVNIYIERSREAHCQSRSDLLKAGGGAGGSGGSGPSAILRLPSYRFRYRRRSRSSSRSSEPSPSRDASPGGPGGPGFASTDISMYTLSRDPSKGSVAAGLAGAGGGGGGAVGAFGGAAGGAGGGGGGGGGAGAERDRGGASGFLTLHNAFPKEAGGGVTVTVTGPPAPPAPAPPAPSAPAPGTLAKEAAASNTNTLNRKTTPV
What is called IC50 is the point on the concentration scale where inhibition reaches its midpoint. As for `CC(C)Cc1nc2ccc(C(F)(F)F)nc2n1-c1cc(Cl)c2[nH]ncc2c1` [Example 414, 3-(7-Chloro-1H-indazol-5-yl)-2-isobutyl-5-(trifluoromethyl)-3H-imidazo[4,5-b]pyridine], the IC50 was 0.126 nM.
With `Cc1cc(-n2c(C(C)C)cc3ccc(C(F)(F)F)nc32)cc2c1NC(=O)C2` [Example 367, 5-[2-Isopropyl-6-(trifluoromethyl)pyrrolo[2,3-b]pyridin-1-yl]-7-methyl-indolin-2-one] the figure was 0.0251 nM; with `Cc1c(Br)c2ccc(C(F)(F)F)nc2n1-c1cnc2c(c1)CC(=O)N2` [Example 395, 5-[3-Bromo-2-methyl-6-(trifluoromethyl)pyrrolo[2,3-b]pyridin-1-yl]-1,3-dihydropyrrolo[2,3-b]pyridin-2-one], 25.1 nM.
With `O=C1Cc2cc(-n3c(C4CCOCC4)nc4ccc(C(F)(F)F)nc43)ccc2N1` [Example 50, 5-[2-Tetrahydropyran-4-yl-5-(trifluoromethyl)imidazo[4,5-b]pyridin-3-yl]indolin-2-one] the figure was 63.1 nM; with `O=C1Cc2cc(-n3c(-c4ccc(F)cc4)cc4cccnc43)ccc2N1` [Example 347, 5-[2-(4-Fluorophenyl)pyrrolo[2,3-b]pyridin-1-yl]indolin-2-one], 2.51 nM; with `O=C1Cc2cc(-n3c(C4CC(F)C4)nc4ccc(C(F)(F)F)nc43)ccc2N1` (stereo not shown) [Example 166, 5-[2-(3-Fluorocyclobutyl)-5-(trifluoromethyl)imidazo[4,5-b]pyridin-3-yl]indolin-2-one], 10 nM.
With `COCCc1nc2ccc(C(F)(F)F)nc2n1-c1ccc2c(c1)CC(=O)N2` [Example 77, 5-[2-(2-Methoxyethyl)-5-(trifluoromethyl)imidazo[4,5-b]pyridin-3-yl]indolin-2-one] the figure was 251 nM; with `FC(F)c1ccc2nc(C3CC3)n(-c3cc(Cl)c4[nH]ncc4c3)c2n1` [Example 227, 3-(7-Chloro-1H-indazol-5-yl)-2-cyclopropyl-5-(difluoromethyl)imidazo[4,5-b]pyridine], 0.0501 nM; with `COc1ccc2nc(-c3ccc(F)cc3)n(-c3ccc4[nH]ccc4c3)c2n1` [Example 5, 2-(4-Fluorophenyl)-3-(1H-indol-5-yl)-5-methoxy-imidazo[4,5-b]pyridine], 39.8 nM.
Regarding `COc1ccc2nc(-c3ccc(F)cc3)n(-c3ccc4c(c3)CC(=O)N4)c2n1` [Example 6, 5-[2-(4-Fluorophenyl)-5-methoxy-imidazo[4,5-b]pyridin-3-yl]indolin-2-one], the IC50 is 39.8 nM.
With `Cc1nc2ccc(C(F)(F)F)nc2n1-c1cc(Cl)c2c(c1)CC(=O)N2` [Example 313, 7-Chloro-5-[2-methyl-5-(trifluoromethyl)imidazo[4,5-b]pyridin-3-yl]indolin-2-one] the figure was 1 nM; with `CC(C)c1nc2ccc(C(F)(F)F)nc2n1-c1ccc2[nH]c(=O)oc2c1` [Example 159, 6-[2-Isopropyl-5-(trifluoromethyl)imidazo[4,5-b]pyridin-3-yl]-3H-1,3-benzoxazol-2-one], 15.8 nM.
Under `Cc1cc(-n2c(-c3ccnc(F)c3)nc3ccc(C(F)(F)F)nc32)cc2cn[nH]c12` [Example 217, 2-(2-Fluoro-4-pyridyl)-3-(7-methyl-1H-indazol-5-yl)-5-(trifluoromethyl)imidazo[4,5-b]pyridine] stands 0.0501 nM; under `FC(F)(F)c1ccc2nc(C(F)(F)F)n(-c3cc(Cl)c4[nH]ncc4c3)c2n1` [Example 270, 3-(7-Chloro-1H-indazol-5-yl)-2,5-bis(trifluoromethyl)imidazo[4,5-b]pyridine], 0.02 nM.
Turning to `Cc1ccc2nc(-c3ccc(F)cc3)n(-c3ccc4[nH]ncc4c3)c2n1` [Example 4, 2-(4-Fluorophenyl)-3-(1H-indazol-5-yl)-5-methyl-imidazo[4,5-b]pyridine], the IC50 was 1 nM.
For `O=C1Cc2cc(-n3c(-c4ccc(F)cc4)c(Br)c4ccc(F)nc43)ccc2N1` [Example 349, 5-[3-Bromo-6-fluoro-2-(4-fluorophenyl)pyrrolo[2,3-b]pyridin-1-yl]indolin-2-one], the IC50 was 3.98 nM.
